From ChEMBL document CHEMBL1142106, “Resin glycosides from the roots of Ipomoea tyrianthina and their biological activity” (2007)
Active and inactive are the calls of the source. No cut-off for these calls is given here.

Columns and labels:
Mus musculus [1] = experiment: Anxiolytic activity of ICR mouse assessed as increase in time spent in open arms at 1.0 mg/kg, ip by EPM test relative to control; type: functional, organism-based; design: dose 1 mg/kg
Mus musculus [2] = experiment: Anticonvulsant effect in ICR mouse assessed as mortality protection against pentylenetetrazole-induced seizures at 1.0 mg/kg, ip relative to control; type: functional, organism-based; design: dose 1 mg/kg
Ileum [3] = experiment: Relaxation of spontaneous contractions of isolated rat ileum at 250 ug/mL relative to control; type: functional
Mus musculus [4] = experiment: Anticonvulsant effect in ICR mouse assessed as mortality protection against pentylenetetrazole-induced seizures at 40 mg/kg, ip relative to control; type: functional; details: route intraperitoneal
Ileum [5] = experiment: Relaxation of spontaneous contractions of isolated rat ileum relative to control; type: functional, tissue-based
Mus musculus [6] = experiment: Anxiolytic activity of ICR mouse at 10 mg/kg, ip by EPM test relative to control; type: functional, organism-based; design: dose 10 mg/kg
Mus musculus [7] = experiment: Anticonvulsant effect in ICR mouse assessed as mortality protection against pentylenetetrazole-induced seizures at 10 mg/kg, ip relative to control; type: functional; details: route intraperitoneal
Mus musculus [8] = experiment: Antidepressant activity in ICR mouse assessed as diminution of immobility time at 10 mg/kg, ip by forced swimming test relative to control; type: functional, organism-based; design: dose 10 mg/kg

Structure (SMILES) | Activity (Mus musculus [1]) | Activity (Mus musculus [2]) | Emax at 250 µg/mL (Ileum [3]) | Activity (Mus musculus [4]) | Activity (Ileum [5]) | Activity (Mus musculus [6]) | Activity (Mus musculus [7]) | Activity (Mus musculus [8])
CN1C(=O)CN=C(c2ccccc2)c2cc(Cl)ccc21 | Active | Active | – | – | – | – | – | –
C/C=C(\C)C(=O)O[C@H]1[C@H](O)[C@@H](O)[C@H](O[C@@H]2[C@H]3OC(=O)CCCCCCCCCC(CCCCC)O[C@@H]4O[C@H](C)[C@@H](O)[C@H](O)[C@H]4O[C@@H]4O[C@H](CO)[C@@H](O)[C@H](O)[C@H]4O[C@H](O[C@H]2C)[C@@H]3OC(=O)C(C)CC)O[C@@H]1C (some centres undefined) [SCAMMONIN 1] | – | – | 55.1% | 100% | Active | inactive | – | –
CCCCCC1CCCCCCCCCC(=O)O[C@@H]2[C@@H](O[C@@H]3O[C@H](C)[C@@H](O)[C@H](O)[C@H]3O)[C@H](C)O[C@@H](O[C@H]3[C@H](O[C@H]4[C@H](O1)O[C@H](C)[C@@H](O)[C@@H]4O)O[C@H](CO)[C@@H](O)[C@@H]3O)[C@@H]2OC(=O)C(C)CC (some centres undefined) [SCAMMONIN 2] | – | – | – | 66% | – | inactive | – | –
CCCCCC1CCCCCCCCCC(=O)O[C@@H]2[C@@H](O[C@@H]3O[C@H](C)[C@@H](OC(=O)C(C)CC)[C@H](O)[C@H]3O)[C@H](C)O[C@@H](O[C@H]3[C@H](O[C@H]4[C@H](O1)O[C@H](C)[C@@H](O)[C@@H]4O)O[C@H](CO)[C@@H](O)[C@@H]3O)[C@@H]2OC(=O)CCC (some centres undefined) [TYRIANTHIN 6] | – | – | 59.1% | 88% | Active | inactive | 33.33% | Active
